A short description of data set [1]: Oral bioavailability in mice (LC-MS/MS of blood). It is filed as in vivo. Conditions: mouse, whole blood, read-out: Oral Bioavailability m%F.
Data set [2] deals with A375 cells. The data set can be described thus: Cellular ERK phosphorylation (pERK). It is filed as cell-based, human. Conditions: Homo sapiens, A-375; A375 (BRAF^V600E).
Data set [3] addresses T1, CYPA (Homo sapiens, UniProt P62937).
T1 construct: His6-TEV-AviTag-CYPA (full-length); His6-TEV (N); made in house; host or cells: BL21(DE3) Escherichia coli
Description: CYPA binding affinity (Kd1), SPR. Conditions: steady state, (95% CI). The method, then: The binding affinity of compounds for CYPA (Kd1) was assessed by SPR on a Biacore 8K instrument as previously described.

The subject of data set [4] is A375 cells. The data set can be described thus: Cell proliferation (CTG). Type of data set: cell-based, human. To be noted: Homo sapiens, A-375; A375, CTG; (95% CI). The method, then: (§1) Alternatively, cells were seeded in round-bottom ultra-low attachment 96-well plates, centrifuged at 1,000 rpm for 10 min to pellet the cells, and incubated overnight or up to 72 h to allow for 3D spheroid formation. […] Cell viability was determined by CellTiter-Glo 2.0 reagent (2D CTG) (Promega, G9243) or 3D CellTiter-Glo reagent (3D CTG) (Promega, G9683) according to the manufacturer’s protocols. Luminescence was detected using a SpectraMax M5 Plate Reader (Molecular Devices) of Perkin Elmer Enspire. Luminescence signal was normalized to vehicle-treated wells (normalized signal (%) = (luminescence (treated)/mean luminescence (vehicle)) × 100%). […] Data were plotted as log [inhibitor (M)], and a four-parameter sigmoidal concentration response model was fitted to the data to calculate EC50. […] Pa16C MEK1 mutant cells were evaluated by live-cell counting using Calcein AM and a SpectraMax i3X multi-mode detection platform (Molecular Devices). Growth percentages were calculated by normalizing the treated cell counts to their respective untreated cell counts.

The subject of data set [5] is Capan-1 cells. The data set can be described thus: Cellular ERK phosphorylation (pERK). To be noted: Homo sapiens; Capan-1 (KRAS^G12V PDAC); (95% CI). Type of data set: cell-based.
The subject of data set [6] is Capan-1 cells. Description: Cell proliferation (CTG). To be noted: Homo sapiens; Capan-1, CTG; (95% CI). Type of data set: cell-based. The method, then: as §1
Data set [7] relates to RAS-less MEFs. Description: Western blots of isogenic RAS-less MEF cells expressing KRAS variants or BRAF(V600E). It is filed as cell-based, mouse. To be noted: 24 h, western blot.
The test system of data set [8] is AsPC-1 and NCI-H441 cells. The data set can be described thus: pERK (MSD) and proliferation (CTG) in AsPC-1 and NCI-H441 cells, CYPA inhibitor co-treatment or PPIA KO. It is filed as cell-based, human. Conditions: for activity at 0.00046 µM: 0.46 nM.
Data set [9] relates to NCI-H441, HPAC and SW620 CDX models. The data set can be described thus: CDX models, RMC-7977 versus SHP2 and MEK inhibitors. Conditions: three KRAS^G12X models; RMC-7977 10 mg kg^−1 once daily, RMC-4550 20 mg kg^−1 every 2 days, cobimetinib 2.5 mg kg^−1 once daily, alone or in combination.
Description: Data are mean ± s.e.m. of 3–18 mice per group.
Female BALB/c nude mice, NOD SCID and NSG mice 6-8 weeks old from Beijing Vital River/VR Laboratory Animal Co., LTD, Beijing AniKeeper Biotech Co., Ltd., Shanghai Sino-British SIPPR/BK Laboratory Animal Co., LTD and The Jackson Laboratory were used. Animals were housed in polycarbonate cages, in an environmentally monitored, well ventilated room maintained at a constant temperature of 20-26°C and relative humidity of 40-80%. Fluorescent lighting provided illumination approximately 12 hours per day. Each mouse was inoculated at the right flank with tumor cells (2x10^6-1x10^7) in 100-200 µL of media/PBS supplemented with Matrigel (1:1). Treatments were started when the average tumor size reached 100-250 mm^3. […] Mice on studies were weighed and tumor measurements collected twice weekly. Human primary cancer xenograft models were generated using fresh cancer tumor fragments obtained from hospitals with informed consent from the patients in accordance with protocols approved by the Hospital Institutional Ethical Committee (IEC). Tumor fragments were serial-passaged in BABL/c nude mice and then cryopreserved. Cryopreserved tumors were recovered by implantation in BALB/c nude mice and further serial passaged and frozen for study implantation use. Recovered tumor fragments of about 15-30 mm3 in size from each model were implanted into right flanks of Balb/c nude mice. Treatment started when average tumor volume reached 100-250mm^3. For efficacy study, Animals were assigned to study groups using stratified randomization based upon their tumor volumes (n=3-10/group). […] Animals were treated for 28 days (or up to 110 for selected models) or an earlier time if tumor burden reached humane endpoint. Mean ± s.e.m was plotted in the waterfall plots. The dashed line on waterfall plot indicates a 10% reduction in tumor volume from baseline. […] Body weights were collected twice a week during the study. For single-dose pharmacokinetic/pharmacodynamics (PK/PD) study, mice were randomized into treatment groups when mean tumor volume reached 400-600 mm^3.
Data set [10] has as its target KRAS^G12V (Homo sapiens, UniProt P01116+P62937, G12V). The data set can be described thus: RAS binding affinity of compound-bound CYPA (Kd2), SPR. Details: His6-TEV (N); made in house; host or cells: BL21(DE3) Escherichia coli. Conditions: steady state, (95% CI).
For data set [11], the system named is Pa16C cells expressing MEK1 mutants. The data set can be described thus: Proliferation (Calcein AM) of Pa16C cells expressing MEK1 mutants. Type of data set: cell-based, human.

Where “and” joins values, the source holds several entries; their conditions need not be identical. Equal entries are not always repeated. Where two headings read alike, the source gives them in different places. A value given as a limit tells only on which side of the number the result lay.

In general, bioavailability refers to the share of a dose that reaches the circulation, judged against a reference dose that is usually intravenous. The term EC50 denotes the midpoint of the concentration-response curve. A low value points to an effect from little substance. Broadly, the Kd is the constant that tells how readily two partners part at equilibrium. For `CCn1c(-c2cccnc2[C@H](C)OC)c2c3cc(ccc31)-c1csc(n1)C[C@H](NC(=O)[C@H](C(C)C)N(C)C(C)=O)C(=O)N1CCC[C@H](N1)C(=O)OCC(C)(C)C2` [Compound 2], the bioavailability in [1] was 0.4%. The 50% effective concentration (EC50) was above 10000 nM in data set [2], above 10000 nM in data set [4], 31.6 nM in data set [5] and 149 nM in [6]. Further, binding in data set [3] was characterised by a dissociation constant (Kd) of 330 nM.
As for `CC(=O)Nc1cccc(-n2c(=O)n(C3CC3)c(=O)c3c(Nc4ccc(I)cc4F)n(C)c(=O)c(C)c32)c1` [trametinib, reference compound], in data set [7], the “pERK suppression in RAS-less MEFs” value is given as “reduced pERK similarly in all cells”. The “effect of disruption of the PPIA locus on sensitivity” value in data set [8] (AsPC-1 and NCI-H441, pERK and proliferation) is on record as “did not affect sensitivity”. In addition, the activity at 16.9 pM in [8] (Homo sapiens, ASPC1, AsPC-1, […], read-out: pERK inhibition in PPIA KO cells treated with trametinib) was 106%. For the same compound, the activity at 0.00046 µM in data set [8] (Homo sapiens, ASPC1, AsPC-1 PPIA KO, read-out: pERK inhibition in PPIA KO cells treated with trametinib) was determined as 47%; in data set [8] (Homo sapiens, NCI-H441, NCI-H441 PPIA KO, read-out: pERK inhibition in PPIA KO cells treated with trametinib), 59%. Further, the activity at 0.00412 µM in data set [8] (Homo sapiens, ASPC1, AsPC-1 PPIA KO, 4.12 nM, read-out: Proliferation inhibition in PPIA KO cells treated with trametinib) came out at 25.5%; in [8] (Homo sapiens, NCI-H441, NCI-H441, 4.12 nM, read-out: Proliferation inhibition in PPIA KO cells treated with trametinib), 49.5%; in [8] (Homo sapiens, NCI-H441, NCI-H441 PPIA KO, 4.12 nM, read-out: Proliferation inhibition in PPIA KO cells treated with trametinib) it was 47%. Further, the activity at 0.037 µM in [8] (Homo sapiens, ASPC1, AsPC-1 PPIA KO, 37.00 nM, read-out: Proliferation inhibition in PPIA KO cells treated with trametinib) was found to be 9.16%; in data set [8] (Homo sapiens, NCI-H441, NCI-H441, 37.00 nM, read-out: Proliferation inhibition in PPIA KO cells treated with trametinib) it was 44.6%; in data set [8] (Homo sapiens, NCI-H441, NCI-H441 PPIA KO, 37.00 nM, read-out: Proliferation inhibition in PPIA KO cells treated with trametinib), 40.9%. Besides, the activity at 0.333 µM in data set [8] (Homo sapiens, ASPC1, AsPC-1 PPIA KO, 333.00 nM, read-out: Proliferation inhibition in PPIA KO cells treated with trametinib) is 4.83%; in data set [8] (Homo sapiens, NCI-H441, NCI-H441, 333.00 nM, read-out: Proliferation inhibition in PPIA KO cells treated with trametinib), 42.2%; in [8] (Homo sapiens, NCI-H441, NCI-H441 PPIA KO, 333.00 nM, read-out: Proliferation inhibition in PPIA KO cells treated with trametinib) it was 37.7%. In addition, the activity at 50 pM in [8] (Homo sapiens, NCI-H441, NCI-H441, 0.05 nM, read-out: Proliferation inhibition in PPIA KO cells treated with trametinib) worked out at 120%. Further, the activity at 1 µM in data set [8] (Homo sapiens, NCI-H441, NCI-H441, 1000.00 nM, read-out: Proliferation inhibition in PPIA KO cells treated with trametinib) came out at 35.6%; in data set [8] (Homo sapiens, NCI-H441, NCI-H441 PPIA KO, 1000.00 nM, read-out: Proliferation inhibition in PPIA KO cells treated with trametinib), 28.5%.
For `Cc1nc(N2CCC3(CC2)CO[C@@H](C)[C@H]3N)c(CO)nc1-c1cccc(Cl)c1Cl` [RMC-4550], the anti-tumour activity entry in data set [9] is on record as “only modest tumour growth inhibition”.
In the case of `CCn1c(-c2cc(N3CCN(C)CC3)cnc2[C@H](C)OC)c2c3cc(ccc31)-c1csc(n1)C[C@H](NC(=O)[C@H]1CCO1)C(=O)N1CCC[C@H](N1)C(=O)OCC(C)(C)C2` [Compound 4], the EC50 in [2] is above 10000 nM; in [4], 6950 nM; in data set [5] it was 1.94 nM; in data set [6] it was 14.2 nM. Moreover, the Kd in data set [3] is 605 nM; in data set [10] it was 292 nM.
Turning to `O=C(Nc1ccc2[nH]nc(-c3ccncc3)c2c1)[C@@H]1CCN(CC(=O)N2CCN(c3ccc(-c4ncccn4)cc3)CC2)C1` [SCH772984], the “Proliferation of Pa16C cells expressing MEK1 mutant constructs” value (shortened to “Proliferation”) in [11] (MEK1E102-I103del, inhibitor 0.046 nM) was 102.4 and 93.7 and 111.1 and 109.2; in data set [11] (MEK1E102-I103del, inhibitor 0.412 nM) it was 88.7 and 97.2 and 116.5 and 112.2; in data set [11] (MEK1E102-I103del, inhibitor 1.235 nM), 62.5 and 77.2 and 97.3 and 86.7; in data set [11] (MEK1K57N, inhibitor 0.046 nM), 116 and 117.1 and 131.7 and 130.6; in data set [11] (MEK1K57N, inhibitor 0.412 nM), 139 and 146.7 and 118.9 and 144.8; in data set [11] (MEK1K57N, inhibitor 1.235 nM) it was 153.6 and 157.6 and 123.4 and 129.5. Besides, the “Proliferation” value in [11] (MEK1K57N, inhibitor 3.704 nM) was 116.2 and 140.9 and 100.4 and 107.4; in [11] (MEK1K57N, inhibitor 11.111 nM), 83.1 and 119.2 and 75.2 and 67; in [11] (MEK1Q56P, inhibitor 0.046 nM), 136.2 and 107 and 127.7 and 113.2; in data set [11] (MEK1Q56P, inhibitor 0.412 nM), 178.1 and 122.6 and 149.9 and 115.3; in [11] (MEK1Q56P, inhibitor 1.235 nM), 166.6 and 134 and 125.8 and 104.6; in data set [11] (MEK1Q56P, inhibitor 3.704 nM), 131.2 and 128.6 and 108.4 and 83.5. Further, the “Proliferation” value in [11] (MEK1S218D/S222D, inhibitor 0.046 nM) was 105.3 and 97.5 and 108.4 and 102.6; in data set [11] (MEK1S218D/S222D, inhibitor 0.412 nM), 90.3 and 97.7 and 107.5 and 108.3; in data set [11] (MEK1S218D/S222D, inhibitor 1.235 nM), 59.2 and 93.4 and 100.5 and 90.2; in data set [11] (MEK1WT, inhibitor 0.046 nM) it was 113.6 and 107.4 and 114.6 and 111.6; in data set [11] (MEK1WT, inhibitor 0.412 nM), 127.4 and 95.8 and 106.8 and 108.8; in data set [11] (MEK1WT, inhibitor 1.235 nM), 95.9 and 89.3 and 90.3 and 82.4. In addition, the “Proliferation” value in data set [11] (MEK1WT, inhibitor 3.704 nM) was 49.4 and 66.6 and 61 and 49.7; in data set [11] (MEK1WT, inhibitor 11.111 nM), 29.9 and 38 and 33.3 and 24.2.
Regarding `CCn1c(-c2cccnc2[C@H](C)OC)c2c3cc(ccc31)-c1csc(n1)C[C@H](NC(=O)[C@H]1CCO1)C(=O)N1CCC[C@H](N1)C(=O)OCC(C)(C)C2` [Compound 3], in [1], the bioavailability was 44%. Also, the EC50 is above 10000 nM in [2], above 10000 nM in data set [4], 124 nM in [5] and 615 nM in data set [6]. Further, the Kd is 6270 nM in [3] and 818 nM in [10].
For `O=C(c1ccc(F)c(F)c1Nc1ccc(I)cc1F)N1CC(O)([C@@H]2CCCCN2)C1` [cobimetinib], the anti-tumour activity result in data set [9] is recorded as “only modest tumour growth inhibition”.

The values are drawn from PMC11111408, “Concurrent inhibition of oncogenic and wild-type RAS-GTP for cancer therapy” (Nature, 2024).
